# Experimental data: patent publication US20100092497A1, “METHODS OF IMMUNE OR HAEMATOLOGICAL ENHANCEMENT, INHIBITING TUMOUR FORMATION OR GROWTH, AND TREATING OR PREVENTING CANCER” (priority 2006, published 2010)
# Experiments:
# [1] = system: EL-4 T cell thymic lymphoma; assay: EL-4 tumour challenge in mice fed experimental diets (tumour growth, rejection, response to paclitaxel); type: in vivo, C57BL/6 mice; settings: Example 1; control diet; paclitaxel 30 mg/Kg i.p. at tumours ~0.6 cm
# [2] = system: EL-4 target cells; assay: Anti-tumour cytolytic activity of splenocytes (CTL assay); type: cell-based, mouse; settings: Example 4; high dose vitamin D (45.2 mg/Kg) by itself or Fe-saturated Lf
# Protocol: Splenocytes were harvested 28 days following tumour cell injection, as specified. They were incubated at 37° C. with EL-4 target cells in graded E:T ratios in 96-well round-bottom plates. After a 4-hour incubation, 50 μl of supernatant was collected, and lysis was measured using the Cyto Tox 96 Assay Kit (Promega, Madison, Wis., USA). Background controls for non-specific target and effector cell lysis were included. After background subtraction, percentage of cell lysis was calculated using the formula: 100×(experimental-spontaneous effector-spontaneous target/maximum target-spontaneous target).
# [3] = daily for several years; cited from earlier work
structure (smiles),measurement,setting,value
"CC(=O)O[C@H]1C(=O)[C@@]2(C)[C@H]([C@H](OC(=O)c3ccccc3)[C@]3(O)C[C@H](OC(=O)[C@H](O)[C@@H](NC(=O)c4ccccc4)c4ccccc4)C(C)=C1C3(C)C)[C@]1(OC(C)=O)CO[C@@H]1C[C@@H]2O [paclitaxel, reference compound]",tumour response to paclitaxel,[1],completely resistant
"C=C1CC[C@H](O)C/C1=C/C=C1\CCC[C@]2(C)[C@@H]([C@H](C)CCCC(C)C)CC[C@@H]12 [vitamin D, cholecalciferol, reference compound]","increase in anti-tumour cytolytic activity of splenocytes, agent by itself",[2],1.9 fold
same,daily ingestion after which most cases of toxicity were reported,[3],"greater than 50,000 IU"
